Test results as given in article PMC3119665, “A New Drug Design Targeting the Adenosinergic System for Huntington's Disease” (PLoS ONE, 2011).

Legend:
Progesterone PR-B = target: T1, Progesterone PR-B (Homo sapiens, UniProt P06401); assay: Radioligand binding panel (Table S1); details: 10 μM T1-11, n 2
T1 construct: purchased MDS Pharma Services Taiwan

[1] = test system: Imidazoline I2, Peripheral; assay: Radioligand binding panel (Table S1); set-up: species or system rat; details: 10 μM T1-11, n 2
A2AR = target: T2, A2AR (Rattus norvegicus, UniProt P30543); assay: cAMP assay in PC12 cells; assay type: cell-based
T2 construct: Treatment of PC12 cells with T1-11 dose-dependently elevated the cellular cAMP levels; endogenous in cells; host or cells: PC12
Procedure: PC12 cells were plated at the density of 5×10^5 cells/well (on 12-well plates) and incubated with the indicated reagent(s) for the desired period of time. Cells were washed twice with ice-cold Locke's solution (150 mM NaCl, 5.6 mM KCl, 5 mM glucose, 1 mM MgCl2, and 10 mM HEPES, adjusted to pH 7.4). Cellular cAMP was extracted by adding 0.3 ml of 0.1 M HCl to each well and incubating this for 10 min on ice.

[2] = test system: GABAA, Benzodiazepine, Central, Flunitrazepam; assay: Radioligand binding panel (Table S1); set-up: species or system rat; details: 10 μM T1-11, n 2
[3] = test system: Vascular Endothelial Growth Factor (VEGF); assay: Radioligand binding panel (Table S1); set-up: species or system human; details: 10 μM T1-11, n 2
Vitamin D3 = target: T3, Vitamin D3 (Homo sapiens, UniProt P11473); assay: Radioligand binding panel (Table S1); details: 10 μM T1-11, n 2
T3 construct: purchased MDS Pharma Services Taiwan

Chemokine CCR4 = target: T4, Chemokine CCR4 (Homo sapiens, UniProt P51679); assay: Radioligand binding panel (Table S1); details: 10 μM T1-11, n 2
T4 construct: purchased MDS Pharma Services Taiwan

Melanocortin MC5 = target: T5, Melanocortin MC5 (Homo sapiens, UniProt P33032); assay: Radioligand binding panel (Table S1); details: 10 μM T1-11, n 2
T5 construct: purchased MDS Pharma Services Taiwan

Dopamine D4.2 = target: T6, Dopamine D4.2 (Homo sapiens, UniProt P21917, DEL265-296); assay: Radioligand binding panel (Table S1); details: 10 μM T1-11, n 2
T6 construct: purchased MDS Pharma Services Taiwan

[4] = target: T7, Leukotriene, Cysteinyl CysLT1 (Homo sapiens, UniProt Q9Y271); assay: Radioligand binding panel (Table S1); details: 10 μM T1-11, n 2
T7 construct: purchased MDS Pharma Services Taiwan

Vanilloid = target: T8, Vanilloid (Rattus norvegicus, UniProt O35433); assay: Radioligand binding panel (Table S1); details: 10 μM T1-11, n 2
T8 construct: purchased MDS Pharma Services Taiwan

Somatostatin sst5 = target: T9, Somatostatin sst5 (Homo sapiens, UniProt P35346); assay: Radioligand binding panel (Table S1); details: 10 μM T1-11, n 2
T9 construct: purchased MDS Pharma Services Taiwan

R6/2 mice = assay: Survival of R6/2 mice; assay type: in vivo; details: 0.05 mg/ml in drinking water, n = 11
From the text: Male R6/2 mice and littermate controls were originally obtained from Jackson Laboratories (Bar Harbor, ME, USA), and mated to female control mice (B6CBAFI/J). Offspring were identified by a polymerase chain reaction (PCR) genotyping technique of genomic DNA extracted from tail tissues using primers located in the transgene (5′-[…]-3′ and 5′-[…]- AGGAG-3′) to ensure that the number of CAG repeats remained approximately 150. In total, 211 R6/2 transgenic mice were used in this study. Animals were housed at the Institute of Biomedical Sciences Animal Care Facility under a 12-h light/dark cycle. Body weights of mice were recorded once daily. Animal experiments were performed under protocols approved by the Academia Sinica Institutional Animal Care and Utilization Committee, Taipei, Taiwan.
Supplementary file pone.0020934.s005.tif: Figure S5 Effect of T1-11 on the shorten lifespan and enlarged ventricle of R6/2 mice. Animals were given the vehicle (1% DMSO; CON) or T1-11 (0.05 mg/ml)-containing drinking water from the age of 7 weeks. (A) Survival was assessed. Specific comparison to R6/2 mice treated with the vehicle (p = 0.306; Mantel-Cox test). (B) Five weeks after T1-11 treatment, 3D-lMRI was performed to determine the ventricle-to-brain ratio of the indicated animals as described. * p<0.05. (TIF) Click here for additional data file.

[5] = target: T10, Leukotriene, Cysteinyl CysLT2 (Homo sapiens, UniProt Q9NS75); assay: Radioligand binding panel (Table S1); details: 10 μM T1-11, n 2
T10 construct: purchased MDS Pharma Services Taiwan

[6] = target: T11, N-Formyl Peptide Receptor, FPR1 (Homo sapiens, UniProt P21462); assay: Radioligand binding panel (Table S1); details: 10 μM T1-11, n 2
T11 construct: purchased MDS Pharma Services Taiwan

Calcium Channel N-Type = target: T12, Calcium Channel N-Type (Rattus norvegicus, UniProt Q02294); assay: Radioligand binding panel (Table S1); details: 10 μM T1-11, n 2
T12 construct: purchased MDS Pharma Services Taiwan

Bombesin BB3 = target: T13, Bombesin BB3 (Homo sapiens, UniProt P32247); assay: Radioligand binding panel (Table S1); details: 10 μM T1-11, n 2
T13 construct: purchased MDS Pharma Services Taiwan

Prostanoid EP4 = target: T14, Prostanoid EP4 (Homo sapiens, UniProt P35408); assay: Radioligand binding panel (Table S1); details: 10 μM T1-11, n 2
T14 construct: purchased MDS Pharma Services Taiwan

[7] = test system: Atrial Natriuretic Factor (ANF); assay: Radioligand binding panel (Table S1); set-up: species or system guinea pig; details: 10 μM T1-11, n 2
[8] = target: T15, Transporter, Serotonin (5-Hydroxytryptamine) (SERT) (Homo sapiens, UniProt P31645); assay: Radioligand binding panel (Table S1); details: 10 μM T1-11, n 2
T15 construct: purchased MDS Pharma Services Taiwan

Purinergic P 2X = assay: Radioligand binding panel (Table S1); set-up: species or system rabbit; details: 10 μM T1-11, n 2
Orexin OX 1 = target: T16, Orexin OX 1 (Homo sapiens, UniProt O43613); assay: Radioligand binding panel (Table S1); details: 10 μM T1-11, n 2
T16 construct: purchased MDS Pharma Services Taiwan

Histamine H2 = target: T17, Histamine H2 (Homo sapiens, UniProt P25021); assay: Radioligand binding panel (Table S1); details: 10 μM T1-11, n 2
T17 construct: purchased MDS Pharma Services Taiwan

Muscarinic M2 = target: T18, Muscarinic M2 (Homo sapiens, UniProt P08172); assay: Radioligand binding panel (Table S1); details: 10 μM T1-11, n 2
T18 construct: purchased MDS Pharma Services Taiwan

Endothelin ETB = target: T19, Endothelin ETB (Homo sapiens, UniProt P24530); assay: Radioligand binding panel (Table S1); details: 10 μM T1-11, n 2
T19 construct: purchased MDS Pharma Services Taiwan

Tachykinin NK3 = target: T20, Tachykinin NK3 (Homo sapiens, UniProt P29371); assay: Radioligand binding panel (Table S1); details: 10 μM T1-11, n 2
T20 construct: purchased MDS Pharma Services Taiwan

Melanocortin MC4 = target: T21, Melanocortin MC4 (Homo sapiens, UniProt P32245); assay: Radioligand binding panel (Table S1); details: 10 μM T1-11, n 2
T21 construct: purchased MDS Pharma Services Taiwan

T2 sequence (P30543 whole entry): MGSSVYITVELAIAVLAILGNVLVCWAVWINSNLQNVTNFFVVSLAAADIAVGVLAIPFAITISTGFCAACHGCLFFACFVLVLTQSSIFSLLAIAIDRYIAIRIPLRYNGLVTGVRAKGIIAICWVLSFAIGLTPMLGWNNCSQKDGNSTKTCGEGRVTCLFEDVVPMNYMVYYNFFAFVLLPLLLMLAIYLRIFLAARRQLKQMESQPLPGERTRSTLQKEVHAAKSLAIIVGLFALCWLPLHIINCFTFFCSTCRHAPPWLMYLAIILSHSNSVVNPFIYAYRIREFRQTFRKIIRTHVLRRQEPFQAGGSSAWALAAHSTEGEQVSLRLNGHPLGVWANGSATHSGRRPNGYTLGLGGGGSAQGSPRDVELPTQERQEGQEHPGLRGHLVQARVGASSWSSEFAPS
T10 sequence (Q9NS75 whole entry): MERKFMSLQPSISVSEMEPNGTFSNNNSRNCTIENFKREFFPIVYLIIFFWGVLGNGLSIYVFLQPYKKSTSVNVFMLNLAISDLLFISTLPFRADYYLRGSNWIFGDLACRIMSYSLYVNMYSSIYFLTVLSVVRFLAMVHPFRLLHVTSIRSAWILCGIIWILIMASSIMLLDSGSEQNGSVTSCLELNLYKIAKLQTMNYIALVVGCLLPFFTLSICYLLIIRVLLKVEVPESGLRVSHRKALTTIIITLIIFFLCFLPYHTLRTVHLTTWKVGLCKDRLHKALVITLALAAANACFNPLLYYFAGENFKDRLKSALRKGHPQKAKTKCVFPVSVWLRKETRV
T5 sequence (P33032 whole entry): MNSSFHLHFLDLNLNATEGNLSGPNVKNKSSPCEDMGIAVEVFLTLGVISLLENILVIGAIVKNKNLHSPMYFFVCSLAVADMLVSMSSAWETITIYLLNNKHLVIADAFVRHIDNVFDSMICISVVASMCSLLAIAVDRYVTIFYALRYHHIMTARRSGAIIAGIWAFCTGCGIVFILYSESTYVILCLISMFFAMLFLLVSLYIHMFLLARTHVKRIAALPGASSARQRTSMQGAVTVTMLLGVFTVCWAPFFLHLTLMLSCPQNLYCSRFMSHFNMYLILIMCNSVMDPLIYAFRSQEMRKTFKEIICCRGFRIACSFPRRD
T1 sequence (P06401 whole entry): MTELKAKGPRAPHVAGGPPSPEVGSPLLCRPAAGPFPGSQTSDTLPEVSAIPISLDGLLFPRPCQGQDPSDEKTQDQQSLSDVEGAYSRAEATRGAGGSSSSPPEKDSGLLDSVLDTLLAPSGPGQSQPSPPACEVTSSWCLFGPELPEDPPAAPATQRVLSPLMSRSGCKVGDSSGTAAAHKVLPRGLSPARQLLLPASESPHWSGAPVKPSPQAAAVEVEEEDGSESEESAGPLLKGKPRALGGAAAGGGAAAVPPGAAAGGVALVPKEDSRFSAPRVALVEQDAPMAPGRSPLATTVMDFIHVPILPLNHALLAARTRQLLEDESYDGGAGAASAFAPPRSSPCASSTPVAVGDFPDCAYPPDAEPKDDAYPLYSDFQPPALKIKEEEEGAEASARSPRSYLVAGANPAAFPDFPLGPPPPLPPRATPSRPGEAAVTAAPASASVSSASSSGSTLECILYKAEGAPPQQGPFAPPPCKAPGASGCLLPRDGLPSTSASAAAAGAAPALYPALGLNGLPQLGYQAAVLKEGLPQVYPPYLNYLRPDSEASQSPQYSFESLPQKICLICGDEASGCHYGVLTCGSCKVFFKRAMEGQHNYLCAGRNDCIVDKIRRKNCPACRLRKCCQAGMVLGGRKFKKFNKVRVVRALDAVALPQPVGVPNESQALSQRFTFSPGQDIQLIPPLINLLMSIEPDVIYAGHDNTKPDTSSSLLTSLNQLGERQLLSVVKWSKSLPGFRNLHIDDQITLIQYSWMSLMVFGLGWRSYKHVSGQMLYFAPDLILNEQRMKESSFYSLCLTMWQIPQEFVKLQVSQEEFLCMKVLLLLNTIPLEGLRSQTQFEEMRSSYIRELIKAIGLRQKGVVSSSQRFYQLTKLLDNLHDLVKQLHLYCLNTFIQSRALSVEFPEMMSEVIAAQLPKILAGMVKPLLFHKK
T12 sequence (Q02294 whole entry): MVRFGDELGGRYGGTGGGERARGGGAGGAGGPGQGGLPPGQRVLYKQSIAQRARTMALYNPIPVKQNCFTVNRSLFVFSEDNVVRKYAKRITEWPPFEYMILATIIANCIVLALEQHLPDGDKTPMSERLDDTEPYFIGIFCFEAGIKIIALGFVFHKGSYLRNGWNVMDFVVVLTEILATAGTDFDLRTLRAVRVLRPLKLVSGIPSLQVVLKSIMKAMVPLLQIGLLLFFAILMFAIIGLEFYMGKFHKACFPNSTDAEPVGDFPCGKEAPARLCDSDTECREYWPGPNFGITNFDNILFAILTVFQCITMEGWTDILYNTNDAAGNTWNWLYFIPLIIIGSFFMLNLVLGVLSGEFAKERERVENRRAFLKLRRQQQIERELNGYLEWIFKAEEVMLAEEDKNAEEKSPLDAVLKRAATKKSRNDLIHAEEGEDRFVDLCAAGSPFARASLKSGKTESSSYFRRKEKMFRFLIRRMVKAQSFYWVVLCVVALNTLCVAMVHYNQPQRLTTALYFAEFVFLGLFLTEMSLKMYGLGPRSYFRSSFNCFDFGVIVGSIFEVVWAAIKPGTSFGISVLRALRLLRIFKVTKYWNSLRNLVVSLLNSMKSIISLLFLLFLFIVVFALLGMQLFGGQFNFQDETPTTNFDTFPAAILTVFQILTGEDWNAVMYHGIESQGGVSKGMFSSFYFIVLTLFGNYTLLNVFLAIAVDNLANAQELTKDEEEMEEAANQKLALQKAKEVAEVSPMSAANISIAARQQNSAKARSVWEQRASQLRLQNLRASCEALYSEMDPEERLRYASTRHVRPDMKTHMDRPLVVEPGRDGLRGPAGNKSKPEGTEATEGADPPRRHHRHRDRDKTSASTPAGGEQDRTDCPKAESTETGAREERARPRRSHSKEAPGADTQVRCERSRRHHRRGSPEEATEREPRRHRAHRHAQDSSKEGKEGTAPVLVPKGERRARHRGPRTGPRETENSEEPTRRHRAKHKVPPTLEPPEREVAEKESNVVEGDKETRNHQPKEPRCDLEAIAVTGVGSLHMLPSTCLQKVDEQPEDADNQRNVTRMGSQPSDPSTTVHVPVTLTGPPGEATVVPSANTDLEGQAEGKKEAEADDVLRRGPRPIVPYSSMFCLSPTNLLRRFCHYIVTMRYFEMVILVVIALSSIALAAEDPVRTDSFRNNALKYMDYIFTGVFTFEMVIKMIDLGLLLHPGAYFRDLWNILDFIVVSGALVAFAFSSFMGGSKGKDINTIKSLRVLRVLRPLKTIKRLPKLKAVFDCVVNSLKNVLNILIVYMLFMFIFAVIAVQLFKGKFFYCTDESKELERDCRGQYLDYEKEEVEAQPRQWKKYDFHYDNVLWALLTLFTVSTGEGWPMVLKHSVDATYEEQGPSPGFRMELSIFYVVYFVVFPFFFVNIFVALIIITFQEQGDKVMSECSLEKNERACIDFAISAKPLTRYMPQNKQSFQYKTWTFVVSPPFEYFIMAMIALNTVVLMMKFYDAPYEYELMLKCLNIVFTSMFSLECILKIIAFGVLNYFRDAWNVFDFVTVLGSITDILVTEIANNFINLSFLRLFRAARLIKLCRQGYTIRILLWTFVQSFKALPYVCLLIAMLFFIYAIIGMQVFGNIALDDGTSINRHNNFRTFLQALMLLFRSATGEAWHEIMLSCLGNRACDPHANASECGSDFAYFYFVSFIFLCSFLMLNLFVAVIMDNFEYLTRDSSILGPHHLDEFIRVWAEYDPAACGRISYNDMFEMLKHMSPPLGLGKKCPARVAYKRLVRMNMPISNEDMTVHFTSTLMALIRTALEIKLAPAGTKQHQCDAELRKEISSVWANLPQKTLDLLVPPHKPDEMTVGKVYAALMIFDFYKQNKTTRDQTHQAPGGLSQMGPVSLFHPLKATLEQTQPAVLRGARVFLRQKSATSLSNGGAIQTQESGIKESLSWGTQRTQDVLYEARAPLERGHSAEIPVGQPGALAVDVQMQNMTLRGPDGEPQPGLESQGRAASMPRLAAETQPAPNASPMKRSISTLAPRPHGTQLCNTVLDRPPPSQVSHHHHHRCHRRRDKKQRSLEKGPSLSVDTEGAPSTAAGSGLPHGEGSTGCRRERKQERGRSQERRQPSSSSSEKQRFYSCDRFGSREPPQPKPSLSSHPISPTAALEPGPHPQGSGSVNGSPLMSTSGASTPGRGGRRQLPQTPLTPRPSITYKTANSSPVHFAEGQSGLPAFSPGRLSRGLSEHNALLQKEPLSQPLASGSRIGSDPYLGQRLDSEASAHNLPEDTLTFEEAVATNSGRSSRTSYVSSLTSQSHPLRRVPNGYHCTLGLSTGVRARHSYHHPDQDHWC
T19 sequence (P24530 27-442): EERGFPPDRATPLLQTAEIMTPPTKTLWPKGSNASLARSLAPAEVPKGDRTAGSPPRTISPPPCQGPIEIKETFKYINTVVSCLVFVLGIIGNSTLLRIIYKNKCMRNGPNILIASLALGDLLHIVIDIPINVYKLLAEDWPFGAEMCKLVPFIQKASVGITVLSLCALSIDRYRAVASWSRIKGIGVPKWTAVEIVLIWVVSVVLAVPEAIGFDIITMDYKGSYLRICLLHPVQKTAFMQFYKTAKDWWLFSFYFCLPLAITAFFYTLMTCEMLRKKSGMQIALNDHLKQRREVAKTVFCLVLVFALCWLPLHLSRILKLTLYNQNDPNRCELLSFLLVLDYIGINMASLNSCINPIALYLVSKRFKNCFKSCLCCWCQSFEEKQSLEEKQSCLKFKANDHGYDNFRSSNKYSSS

Question: With OC[C@H]1O[C@@H](n2cnc3c(NCc4ccc(O)cc4)ncnc32)[C@H](O)[C@@H]1O [T1-11, N ^6-(4-hydroxybenzyl)adenine riboside] as the compound, how does the inhibition at 10 µM (Progesterone PR-B) read?
Answer: The inhibition at 10 µM was -8%.

Question: And the “% Inhibition” value [1]?
Answer: Its value is 10%.

Question: What about the Function (A2AR; A2A adenosine receptor, elevates cellular cAMP levels) of the same compound?
Answer: The Function was “agonist”.

Question: And the EC50 (A2AR; PC12 cells, 20 min at RT, read-out: EC50, elevation of cellular cAMP levels)?
Answer: Its EC50 is ~2200 nM.

Question: What about the “% Inhibition” value [2] of the same compound?
Answer: The value was 6%.

Question: What about the “% Inhibition” value [3] of the same compound?
Answer: The value was 16%.

Question: And the inhibition at 10 µM (Vitamin D3)?
Answer: The inhibition at 10 µM was 6%.

Question: What about the inhibition at 10 µM (Chemokine CCR4) of the same compound?
Answer: The inhibition at 10 µM was 5%.

Question: What about the inhibition at 10 µM (Melanocortin MC5) of the same compound?
Answer: The inhibition at 10 µM was 1%.

Question: What about the inhibition at 10 µM (Dopamine D4.2) of the same compound?
Answer: Its inhibition at 10 µM is 3%.

Question: What about the inhibition at 10 µM [4] of the same compound?
Answer: Its inhibition at 10 µM is -4%.

Question: And the inhibition at 10 µM (Vanilloid)?
Answer: The inhibition at 10 µM was 8%.

Question: And the inhibition at 10 µM (Somatostatin sst5)?
Answer: Its inhibition at 10 µM is 4%.

Question: And the Mean survival time (R6/2 mice)?
Answer: The Mean survival time was 103.3 ± 3.9 days.

Question: What about the inhibition at 10 µM [5] of the same compound?
Answer: The inhibition at 10 µM was 10%.

Question: And the inhibition at 10 µM [6]?
Answer: Its inhibition at 10 µM is 5%.

Question: And the inhibition at 10 µM (Calcium Channel N-Type)?
Answer: The inhibition at 10 µM was 1%.

Question: What about the inhibition at 10 µM (Bombesin BB3) of the same compound?
Answer: The inhibition at 10 µM was 12%.

Question: What about the inhibition at 10 µM (Prostanoid EP4) of the same compound?
Answer: Its inhibition at 10 µM is -6%.

Question: And the “% Inhibition” value [7]?
Answer: The value was 5%.

Question: And the inhibition at 10 µM [8]?
Answer: Its inhibition at 10 µM is 5%.

Question: And the “% Inhibition” value (Purinergic P 2X)?
Answer: The value was 11%.

Question: What about the inhibition at 10 µM (Orexin OX 1) of the same compound?
Answer: Its inhibition at 10 µM is -13%.

Question: And the inhibition at 10 µM (Histamine H2)?
Answer: The inhibition at 10 µM was -10%.

Question: And the inhibition at 10 µM (Muscarinic M2)?
Answer: The inhibition at 10 µM was 4%.

Question: And the inhibition at 10 µM (Endothelin ETB)?
Answer: The inhibition at 10 µM was 2%.

Question: What about the inhibition at 10 µM (Tachykinin NK3) of the same compound?
Answer: Its inhibition at 10 µM is -3%.

Question: What about the inhibition at 10 µM (Melanocortin MC4) of the same compound?
Answer: The inhibition at 10 µM was 5%.
